From patent US20070093449A1, “Novel IV formulation of tipifarnib” (priority 2005, published 2007)
Read-outs that look alike come from different tables or passages of the source.

Experiments:
CYP3A4 = CYP3A4 (Homo sapiens, UniProt P08684); settings: compared to CYP2C19, CYP2A6, CYP2D6, CYP2C8/9/10; cited from earlier work
plasma proteins [1] = experiment: Tipifarnib protein binding analysis, equilibrium dialysis of patient plasma (ex vivo); format: in vitro ADME, human
Method: Tipifarnib was specifically labeled with [^14C] at the asymmetric carbon atom. A 7-mL blood sample was taken from 24 patients at 4 hours after the start of the continuous intravenous infusion of tipifarnib on Day 4. The plasma samples were fortified with [^14C]-tipifarnib at 500 ng/ml. The fortified plasma samples were subjected to equilibrium dialysis against a 0.067 M phosphate buffer, pH 7.17 at 37° C. for 4 hours in a Dianorm system with identical macro-1 Teflon cells and Diachema 10.17 dialysis membranes (MW cut-off 10,000). Radioactivity levels were measured in duplicate 100-μl aliquots of the fortified plasma before and after equilibrium dialysis, and in 1000-μl duplicate aliquots of the contents of buffer compartments of the dialysis cells admixed with methanol after dialysis in a Packard Tri-Carb 1900 TR liquid scintillation spectrometer. The total protein concentration was determined with a colorimetric biureet method, kit Roche Diagnostics 1929917. The albumin concentration was determined with a colorimetric bromocresol green method kit Roche Diagnostics 1970909. The α1-acid glycoprotein concentration was determined with an immuno-turbidimetric method, kit Roche Diagnostics 1557602. All these tests were performed on a Roche Hitachi Modular analyser. […]

advanced solid tumor = experiment: Clinical assessment: efficacy / tumor response; format: in vivo, human
Method: (§1) Complete patient history was taken, and a physical examination (including vital signs), hematological tests, and clinical chemistry tests were performed at baseline and during treatment. To assess cardiovascular safety, twelve-lead E.C.G.s were recorded at screening, during Cycle 1 and at the end of therapy. Although objective tumor response was not the primary objective of this study, an attempt was made to obtain appropriate measurements to assess response. All adverse events and clinically relevant laboratory abnormalities were graded according to Common Toxicity Criteria (CTC version 2.0)

[2] = Plasma pharmacokinetics of tipifarnib after oral, 2-hour i.v. and continuous i.v. administration in cancer patients; format: in vivo, human; settings: for systemic exposure (AUC0-10h) lower relative to 200 mg oral dose: Day 4, cohort 1 (3 subjects); for systemic exposure lower relative to 200 mg oral dose: cohort 2 (3 subjects); for bioavailability: oral, dose-normalized AUC0-10h, fed, read-out: mean absolute bioavailability of the oral tablet; for bioavailability / Tmax: 200 mg; for Tmax: po
Method: The objective of the first (dose-determination) phase of the study was to identify an intravenous regimen that was well tolerated. It was expected that this regimen would be equivalent to 50% -60% of a clinically relevant oral dose (200 mg), based on a prior pilot determination of absolute bioavailability in healthy male volunteers. A first cohort of 3 subjects received the following uninterrupted 4-day consecutive treatments of tipifarnib: 30 mg as a 2-hour intravenous infusion b.i.d. on Day 1-4, followed by 200 mg as oral administration b.i.d. on Day 5-8, followed by 60 mg per day as a continuous intravenous infusion on Day 9-12. Similarly, a second cohort of 3 subjects received similar 4-day regimens of tipifarnib: 60 mg as a 2-hour intravenous infusion b.i.d., followed by 200 mg as oral administration b.i.d., followed by 120 mg per day as a continuous intravenous infusion. There was no washout period between each of the 4-day oral or i.v. treatments described.
The second (i.v.-oral bridging) phase of the study was completed in separate group of patients. Systemic exposure to tipifarnib following the selected 2-hour and continuous intravenous regimens (from the previous dose-determination phase) was compared to exposure after a 200-mg b.i.d. oral regimen. The bridging phase was initiated when at least 2 subjects of the second cohort of the dose-determination phase were observed without DLT until Day 21. A total of 24 subjects were randomly assigned in a 1:1 ratio to one of two treatment sequences at the chosen intravenous regimens, in order to account for potential sequence-effects.
Sequence 1: 100 mg b.i.d. administered as a 2-hour intravenous infusion on Days 1-4, followed by 200 mg oral tablets b.i.d. on Days 5-8, then 200 mg/day administered as a continuous 4-day intravenous infusion on Days 9-12.
Sequence 2: 200 mg/day administered as a continuous 4-day intravenous infusion on Days 1-4, followed by 200 mg oral tablets b.i.d. on Days 5-8, then 100 mg b.i.d. administered as a 2-hour intravenous infusion on Days 9-12.
In both the dose-determination and the bridging phases, pharmacokinetic sampling was performed during a 10-hour period from the start of the morning dose on Day 4 of each treatment. Whole blood samples were taken immediately before, and 0.5, 1, 2, 3, 4, 6, 8, and 10 hours after oral administration. For 2-hour intravenous infusion, blood samples were taken immediately before, and 1, 2 (i.e. just before the end of the infusion), 2.25, 3, 4, 6, 8, and 10 hours after dosing. Blood samples were taken immediately before, and 2, 4, 6, 8, and 10 hours after the start of the continuous intravenous infusion.
A minimum of 7 mL of blood for each PK sample was collected. Whole blood samples were immediately placed on ice and centrifuged within 2 hours after collection (10 min, 1000×g). Separated plasma was frozen immediately at ≦−18° C. until assayed.
Plasma samples were thawed at room temperature, and individual sample was analyzed for tipifarnib using a previous published method. To 1-ml aliquots of human plasma, 200 ng of the internal standard (R121550, a structural analog) was spiked. After adding 1 ml of NaOH (0.1M), the samples were extracted twice with 4 ml of heptane containing 10% of isoamylalcohol. The combined organic phases were back-extracted with 2 ml of HCl (2M). After alkalization with concentrated ammonia, the aqueous phase was extracted once with 5 ml of heptane containing 5% of isoamylalcohol. This extract was evaporated under nitrogen at 65° C. and the residue dissolved in 100 microliters of injection solvent (Ammoniumacetate 0.01M/acetonitile/methanol; 50/25/25). A 15 μl extract was injected into an HPLC with UV detection (Agilent) at a wavelength of 240 nm. Separation was performed on a 10 cm×4.6 mm chromatographic column, packed with 3 μm C 18 BDS-Hypersil (Alltech). […]

[3] = Solubility and hydrolytic stability of tipifarnib in water; format: physicochemical
Method: Tipifarnib is a base with very good water solubility at acidic pH. It hydrolyzes to R110127, wherein the amine functionality is replaced by a hydroxy functionality. […] R110127 has the following structure: [drawing 2]
[…] is added to Formulation 1 to solubilize tipifarnib when it is reconstituted with Formulation 2. The pH value of the reconstituted solution is ˜4.5. At this pH value tipifarnib precipitates if no Hydroxypropyl-β-cyclodextrin is present. The risk of local irritation during infusion into a peripheral vein (arm) is at an acceptable level at this pH value.

[4] = target: human farnesyltransferase (FTase) (Homo sapiens, UniProt P49354+P49356); settings: in vitro and in vivo; cited from earlier work
[5] = oral administration, cited from earlier work
[6] = oral 50- to 500-mg b.i.d.; cited from earlier work
[7] = cited from earlier work
plasma proteins [8] = experiment: In vitro plasma protein binding, plasma from 5 healthy men; format: in vitro ADME, human
Description: The value of the plasma protein binding of tipifarnib from the ex vivo measurement on cancer subjects in this trial is very close to that (99.22% bound) obtained from an in vitro experiment with the plasma samples from 5 healthy men. […]

[9] = Clinical assessment: toxicity (CTC version 2.0), dose-limiting toxicity; format: in vivo, human
Description: The second and third subjects in the cohort were to be started only when the first subject completed the first intravenous and the oral treatment (i.e., 8-day period) without a dose-limiting toxicity (DLT). If a DLT occurred in 1 of 3 subjects of either the first or the second cohort, 3 supplementary subjects were to be added to that cohort. If more than 1 subject experienced DLT (either in the first 3 subjects or in the extended cohort of 6 subjects), dose escalation was to be terminated, and other subjects in that cohort had to complete their therapy at the same dose.
as §1

human hepatocytes = settings: in vitro; cited from earlier work
[10] = 2-hour i.v. infusion 100 mg b.i.d. versus oral 200 mg b.i.d.

Chain of CYP3A4 (P08684 whole entry): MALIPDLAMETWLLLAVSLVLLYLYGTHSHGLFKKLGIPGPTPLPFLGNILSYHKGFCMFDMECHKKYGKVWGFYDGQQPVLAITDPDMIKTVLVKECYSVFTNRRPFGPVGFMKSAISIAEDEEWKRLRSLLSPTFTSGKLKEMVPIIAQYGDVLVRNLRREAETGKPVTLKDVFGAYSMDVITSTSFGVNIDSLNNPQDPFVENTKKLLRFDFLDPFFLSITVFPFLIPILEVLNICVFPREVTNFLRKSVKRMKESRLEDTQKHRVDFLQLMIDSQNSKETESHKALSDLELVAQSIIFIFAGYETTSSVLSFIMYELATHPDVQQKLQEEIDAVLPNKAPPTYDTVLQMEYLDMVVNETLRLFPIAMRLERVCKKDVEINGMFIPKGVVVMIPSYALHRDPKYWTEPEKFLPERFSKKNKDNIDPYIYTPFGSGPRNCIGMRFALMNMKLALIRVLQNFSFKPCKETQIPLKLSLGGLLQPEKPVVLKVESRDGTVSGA

For `Cn1cncc1[C@@](N)(c1ccc(Cl)cc1)c1ccc2c(c1)c(-c1cccc(Cl)c1)cc(=O)n2C` [tipifarnib], the CYP450 metabolic pathway (CYP3A4) is listed as “CYP3A4 was a predominant metabolic pathway”, the “mean free (unbound) fraction” value (plasma proteins [1]; plasma drawn 4 hours after start of continuous i.v. infusion, Day 4) is listed as 0.62% and the “dependence of unbound fraction on total drug plasma concentration” value (plasma proteins [1]; range 211 ng/mL to 812 ng/mL) is listed as “independent of total drug plasma concentration”. For the same compound, the objective tumor responses (advanced solid tumor; 31 subjects evaluable) was “No objective tumor responses were observed”, the “stable disease for at least 6 months” value (advanced solid tumor; 31 subjects evaluable) was 14 subjects and the “duration of hematological improvement (durable increase in hemoglobin)” value (advanced solid tumor; one subject with MDS) was 8 months. For the same compound, the “systemic exposure (AUC0-10h) lower relative to 200 mg oral dose” value ([2]; 30 mg b.i.d. 2-hour intravenous infusion) was “approximately 64%”, the “systemic exposure lower relative to 200 mg oral dose” value ([2]; 60 mg b.i.d. 2-hour intravenous infusion) was “approximately 47%” and the “systemic exposure (AUC0-10h) lower relative to 200 mg oral dose” value ([2]; 60 mg per day continuous intravenous infusion) was about 59%. The “systemic exposure lower relative to 200 mg oral dose” value ([2]; 120 mg per day continuous infusion) was about 46%, the “AUC0-10h higher than after oral administration” value [2, 10] was 19.3% and the “Cmax higher than after oral administration” value [2, 10] was 48.0%. For the same compound, the bioavailability ([2]; human, plasma, oral versus 2-hour i.v.) was 46.3%, the bioavailability ([2]; human, plasma, oral versus continuous intravenous infusion) was 40.9% and the Tmax ([2]; human, plasma, oral 200 mg b.i.d. for 4 days, read-out: time of maximum plasma concentration (tmax)) was about 2 h. The Tmax ([2]; human, plasma, oral 200 mg b.i.d., 29 subjects, read-out: range of tmax) was 0.5 to 3 h, the AUC(0-t) ([2]; human, plasma, oral 200 mg b.i.d., 2-hour i.v. 100 mg b.i.d., continuous i.v. 200 mg/day, read-out: range of mean AUC0-10h values across the 3 treatments) was 3990 to 4490 ng·h/mL and the AUC(0-t) ([2]; human, plasma, oral 200 mg b.i.d., Day 4, n=24, read-out: arithmetic mean AUC0-10h (±SD)) was 3990 ± 1670 ng·h/mL. The Cmax ([2]; human, plasma, oral 200 mg b.i.d., Day 4, n=24, read-out: arithmetic mean Cmax (±SD)) was 994 ± 487 ng/mL, the “arithmetic mean AUC0-10h (±SD)” value ([2]; oral 200 mg b.i.d., Day 4, n=24) was 3990 ng·h/mL and the water solubility ([3]; acidic pH) was “very good”. For the same compound, the “rate of hydrolytic degradation to R110127” value ([3]; aqueous) was “lowest at acidic condition but still very fast”, the “solubility in reconstituted solution” value ([3]; pH ~4.5, without hydroxypropyl-β-cyclodextrin) was “precipitates” and the “inhibition of human farnesyltransferase (FTase)” value [4] was “potent and selective nonpeptidomimetic competitive inhibitor”. The “concentrations of unchanged tipifarnib lower than total radioactivity concentrations” value ([5]; deproteinized samples) was “approximately 8 times”, the “concentrations of unchanged tipifarnib lower than total radioactivity concentrations” value ([5]; nonprecipitated samples) was 42 times and the “oral dose recovered in faeces as tipifarnib” value [5] was “less than 7%”. The “unchanged drug excreted in the urine” value [5] was “No unchanged drug was excreted in the urine”, the peak concentration range [6] was 68 to 1458 ng/mL and the “mean AUC0-10h” value ([7]; 150 mg orally twice daily) was 2495 ng·h/mL. The mean Cmax ([7]; 150 mg orally twice daily) was 443 ng/mL, the “mean AUC0-10h” value ([7]; 300 mg orally twice daily) was 4674 ng·h/mL and the mean Cmax ([7]; 300 mg orally twice daily) was 974 ng/mL. The fraction unbound at 4 h, 1000 ng/mL (plasma proteins [8]; male, human, pH 7.17, blank plasma fortified with 14C-tipifarnib at 1000 ng/mL, read-out: plasma protein binding (bound) (converted)) was 0.0078, the “dependence of in vitro plasma protein binding on total tipifarnib concentration” value (plasma proteins [8]; range 100 to 5000 ng/mL) was “independent of the total tipifarnib concentrations” and the “febrile neutropenia, subjects” value ([9]; 1 subject) was 3%. For the same compound, the “Grade 3 or 4 drug-related neutropenia, patients” value ([9]; 9/30 patients) was 30%, the phlebitis ([9]; IV bolus via peripheral venous access, not observed via central vein) was 3 subjects and the dose limiting toxicity ([9]; cohort 1: 30 mg b.i.d. 2-hour i.v., 60 mg per day continuous i.v.) was “No dose limiting toxicity”. The “dose limiting toxicity (DLT)” value ([9]; cohort 2: 60 mg b.i.d. 2-hour i.v., 120 mg per day continuous i.v.) was “no DLT was observed”, the “adverse events associated with intravenous administration” value ([9]; intravenous tipifarnib) was “No unusual adverse events” and the drug-related anorexia ([9]; mainly grade 1) was 20%. It also gave a drug-related diarrhea ([9]; mainly grade 1) of 13%, a drug-related fatigue ([9]; mainly grade 1) of 60% and a drug-related nausea ([9]; mainly grade 1) of 40%. For the same compound, the drug-related vomiting ([9]; mainly grade 1) was 17% and the “metabolism in human hepatocytes” value (human hepatocytes) was “undergoes direct glucoronidation”.
